Measured values: patent publication US9358281B2, “Methods, agents and peptides for inducing an innate immune response in HIV vaccination” (New York University, priority 2009, dated 2016)
“Also recorded” adds a separate entry of the source. Where two headings read alike, the source gives them in different places.

What was measured:
Assay type in all cases: cell-based, human
STAT1 = experiment: Immunoblot of phospho-STAT1 over time in MDDC; settings: after treatment or infection
Description: (§1) Western blot analysis: Cells were lysed in 1% NP-40, 50 mM Tris pH 8, 120 mM NaC, 4 mM EDTA, 50 mM NaF, 1 mM NA3VO4 and a protease inhibitors cocktail (Roche). Total lysates were resolved on SDS-PAGE, transferred to PVDF membranes and probed with primary antibodies and corresponding HRP-conjugated secondary antibodies.
as §1, with “NaCl,” for “NaC,”, “inhibitor” for “inhibitors”, “antibodies (GE Healthcare).” for “antibodies.”

[1] = system: monocyte-derived dendritic cells (MDDC); settings: for effect on MDDC activation (CD86 in GFP+) by HIVGFP(G)+SIVVLP(G): inhibitor added within the first 24 hours of infection
naive CD4+ T cells = experiment: Naive T cell proliferation assay (CFSE dilution) with infected DC and anti-CD3; settings: 25 μM AZT or 1 μM SCY
Description: Naive T cell proliferation assay: 48 h after infection, naive T cells were labeled with CFSE (eBioscience) as described previously (Antons et al., 2008). DC were infected with dilutions of SIVVLP(G) and pLaiΔEnv-GFP3(G) WT (indicated as HIVGFP(G)) or G89V. AZT was added at the time of infection and SCY was added from 3 to 8 hours after infection. 48 hours after infection, half of the DC was processed for surface staining and cytometry. The other half was washed with media and resuspended in fresh media without cytokines. 20,000 T cells were mixed with DC at a DC to T ratio of 1:5 and 1:15. Cells were stimulated by dilutions of anti-CD3 (OKT3 hybridoma supernatant, approximately 1-100 ng/ml) in a total volume of 150 to 200 μl in round bottom 96-well plates. Cells were harvested and analyzed by flow cytometry at day 4 or day 5 postactivation.

Molecule	time at which STAT1 phosphorylation was present (STAT1)	effect on LPS- or poly(I:C)-induced CD86 up-regulation [1]	effect on MDDC activation (CD86 in GFP+) by HIVGFP(G)+SIVVLP(G) [1]	ability of treated, HIVGFP(G) and SIVVLP(G) infected DC to induce proliferation (naive CD4+ T cells)	effect on MDDC activation (CD86 in GFP+) by HIVGFP(G)+SIVVLP(G) ([1]; listed as Raltegravir)
lipopolysaccharide [LPS]	2 h	–	–	–	–
Cc1cn([C@H]2C[C@H](N=[N+]=[N-])[C@@H](CO)O2)c(=O)[nH]c1=O [AZT, Zidovudine]	–	had no effect	blocked activation; also recorded: inhibited transduction efficiency and MDDC activation	reduced ability to induce proliferation	–
Cc1nnc(C(=O)NC(C)(C)c2nc(C(=O)NCc3ccc(F)cc3)c(O)c(=O)n2C)o1 [RAL, Raltegravir]	–	had no effect	blocked activation	–	inhibited transduction efficiency and MDDC activation
